Reference: PubChem BioAssay AID588414 (Sanford-Burnham Center for Chemical Genomics, 2011)
Active and inactive are the calls of the source.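 The calls were made as follows: active = IC50 at or below 20 µM; inactive = the rest.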

These compounds were tested against Glucose-6-phosphate 1-dehydrogenase (Homo sapiens) (UniProt P11413) (assay: inhibition of human G6PD activity – biochemical, fluorescence, dose response, selectivity assay for P. falciparum G6PD inhibitor project, SAR follow-up (AID 588414)). Conditions: NADPH-diaphorase-resazurin fluorescence.
Chain of Glucose-6-phosphate 1-dehydrogenase (Homo sapiens) (P11413 whole entry, looked up): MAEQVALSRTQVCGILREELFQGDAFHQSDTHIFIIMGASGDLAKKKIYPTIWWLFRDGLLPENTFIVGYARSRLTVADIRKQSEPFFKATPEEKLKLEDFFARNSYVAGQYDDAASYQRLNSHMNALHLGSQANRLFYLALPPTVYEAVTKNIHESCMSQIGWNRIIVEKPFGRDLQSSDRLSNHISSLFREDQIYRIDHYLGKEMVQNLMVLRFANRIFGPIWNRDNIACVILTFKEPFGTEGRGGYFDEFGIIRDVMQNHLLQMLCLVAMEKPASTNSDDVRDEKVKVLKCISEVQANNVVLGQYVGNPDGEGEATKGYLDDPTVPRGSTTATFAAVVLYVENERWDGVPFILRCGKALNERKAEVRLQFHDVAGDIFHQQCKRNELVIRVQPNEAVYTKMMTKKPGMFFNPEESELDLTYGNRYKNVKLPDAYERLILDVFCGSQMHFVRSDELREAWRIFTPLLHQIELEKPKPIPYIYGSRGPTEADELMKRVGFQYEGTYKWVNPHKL

IC50, inactive:
O=C1Nc2cc(C(=O)NCCN3CCCCCC3)ccc2S/C1=C/c1ccccc1F > 80 µM
O=C(Nc1nnc(S(=O)(=O)N2CCCCCC2)s1)C1CCCCC1 > 80 µM
CCN(CC)CCNC(=O)c1ccc2c(c1)NC(=O)/C(=C/c1ccccc1)S2 > 80 µM
CCC(C)N(CCNC(=O)c1ccc2c(c1)NC(=O)c1ccccc1S2)C1CCCCC1 (stereo not drawn) > 80 µM
Cc1ccc(C(=O)Nc2nnc(S(=O)(=O)N3CCCc4ccccc43)s2)cc1 > 80 µM
CCCN(CCC)CCNC(=O)c1ccc2c(c1)NC(=O)/C(=C\c1ccc(C)cc1)S2 > 80 µM
O=C(Nc1nnc(S(=O)(=O)N2CCCCCC2)s1)c1ccccc1 > 80 µM
Cc1ccc(C(=O)Nc2nnc(S(=O)(=O)N3CCCCCC3)s2)cc1 > 80 µM
CCN1CCCC1CNC(=O)c1ccc2c(c1)N(Cc1ccccc1Cl)C(=O)c1ccccc1S2 (stereo not drawn) > 80 µM
O=C1Nc2cc(C(=O)NCCN3CCCCCC3)ccc2S/C1=C/c1ccccc1Cl > 80 µM
CCN(CC)CCNC(=O)c1ccc2c(c1)N(Cc1ccc(C)cc1)C(=O)c1ccccc1S2 > 80 µM
O=C(Nc1nnc(S(=O)(=O)N2CCCCCC2)s1)c1ccc(F)cc1 > 80 µM
CCN(CCNC(=O)c1ccc2c(c1)N(CC)C(=O)c1ccccc1S2)c1ccccc1 > 80 µM
CCN(CC)CCNC(=O)c1ccc2c(c1)NC(=O)/C(=C\c1ccc(OC)c(OC)c1)S2 > 80 µM
Cc1cccc(C(=O)Nc2nnc(S(=O)(=O)N3CCCCCC3)s2)c1 > 80 µM
CCOc1ccc(C(=O)Nc2nnc(S(=O)(=O)N3CCCCCC3)s2)cc1 > 80 µM
COc1ccc(/C=C2/Sc3ccc(C(=O)NCCN4CCCCCC4)cc3NC2=O)cc1 > 80 µM
CCN(CCNC(=O)c1ccc2c(c1)N(Cc1cc(C)ccc1C)C(=O)c1ccccc1S2)c1ccccc1 > 80 µM
COc1ccccc1C(=O)Nc1nnc(S(=O)(=O)N2CCCCCC2)s1 > 80 µM
CCN(CC)CCNC(=O)c1ccc2c(c1)N(Cc1cc(C)ccc1C)C(=O)c1ccccc1S2 > 80 µM
COc1cccc(C(=O)Nc2nnc(S(=O)(=O)N3CCCCCC3)s2)c1 > 80 µM
CCN(CC)CCNC(=O)c1ccc2c(c1)NC(=O)/C(=C\c1ccccc1Cl)S2 > 80 µM
Cc1ccccc1C(=O)Nc1nnc(S(=O)(=O)N2CCCCCC2)s1 > 80 µM
O=C(Nc1nnc(S(=O)(=O)N2CCOCC2)s1)c1cccc(F)c1 > 80 µM
CCN1CCCC1CNC(=O)c1ccc2c(c1)NC(=O)/C(=C\c1ccccc1F)S2 (stereo not drawn) > 80 µM
CCN(CC)CCNC(=O)c1ccc2c(c1)NC(=O)/C(=C\c1ccc(OC)cc1)S2 > 80 µM
CN(C)CCNC(=O)c1ccc2c(c1)NC(=O)/C(=C\c1ccccc1F)S2 > 80 µM
Cc1cccc(C(=O)Nc2nnc(S(=O)(=O)N3CCC(C)CC3)s2)c1 > 80 µM
CCN1CCCC1CNC(=O)c1ccc2c(c1)NC(=O)/C(=C/c1ccccc1F)S2 (stereo not drawn) > 80 µM
COc1cccc(/C=C2/Sc3ccc(C(=O)NCCN4CCCC4)cc3NC2=O)c1 > 80 µM
O=C(Nc1nnc(S(=O)(=O)N2CCCCCC2)s1)c1ccccc1F > 80 µM
Cc1cccc(N2CCN(CCNC(=O)c3ccc4c(c3)NC(=O)c3ccccc3S4)CC2)c1C > 80 µM
O=C1Nc2cc(C(=O)NCCN3CCCC3)ccc2S/C1=C/c1ccccc1Cl > 80 µM
CCN1CCCC1CNC(=O)c1ccc2c(c1)NC(=O)c1ccccc1S2 (stereo not drawn) > 80 µM
O=C(Nc1nnc(S(=O)(=O)N2CCCCCC2)s1)c1ccco1 > 80 µM
O=C(Nc1nnc(S(=O)(=O)N2CCCc3ccccc32)s1)c1cccc(F)c1 > 80 µM
Cc1ccc(C(=O)Nc2nnc(S(=O)(=O)N3c4ccccc4CC3C)s2)cc1 (stereo not drawn) > 80 µM
CCCN(CCC)CCNC(=O)c1ccc2c(c1)NC(=O)/C(=C/c1ccccc1)S2 > 80 µM
CC1Cc2ccccc2N1S(=O)(=O)c1nnc(NC(=O)c2cccc(Br)c2)s1 (stereo not drawn) > 80 µM
Cc1ccc(CN2C(=O)c3ccccc3Sc3ccc(C(=O)NCCN(C)C)cc32)cc1 > 80 µM
CCN(CCNC(=O)c1ccc2c(c1)NC(=O)c1ccccc1S2)c1ccccc1 > 80 µM
O=C(Nc1nnc(S(=O)(=O)N2CCCCCC2)s1)c1cccc(Br)c1 > 80 µM
CCN(CC)CCNC(=O)c1ccc2c(c1)NC(=O)/C(=C\c1cccc(C)c1)S2 > 80 µM
COc1ccc(C(=O)Nc2nnc(S(=O)(=O)N3CCCCCC3)s2)cc1OC > 80 µM
COc1ccc(/C=C2/Sc3ccc(C(=O)NCCN4CCCC4)cc3NC2=O)cc1 > 80 µM
CCN1CCCC1CNC(=O)c1ccc2c(c1)NC(=O)/C(=C\c1ccc(C)cc1)S2 (stereo not drawn) > 80 µM
CCN1CCCC1CNC(=O)c1ccc2c(c1)N(Cc1cccc(F)c1)C(=O)c1ccccc1S2 (stereo not drawn) > 80 µM
CCN(CC)CCNC(=O)c1ccc2c(c1)N(Cc1ccccc1Cl)C(=O)c1ccccc1S2 > 80 µM
CCN(CC)CCNC(=O)c1ccc2c(c1)NC(=O)/C(=C\c1ccccc1F)S2 > 80 µM
Cc1cccc(C(=O)Nc2nnc(S(=O)(=O)N3c4ccccc4CC3C)s2)c1 (stereo not drawn) > 80 µM
COc1ccc(/C=C2/Sc3ccc(C(=O)NCCN(C)C)cc3NC2=O)cc1 > 80 µM
O=C1Nc2cc(C(=O)NCCN3CCCC3)ccc2S/C1=C/c1ccccc1F > 80 µM
Cc1cccc(/C=C2/Sc3ccc(C(=O)NCCN4CCCC4)cc3NC2=O)c1 > 80 µM
CCN(CC)CCNC(=O)c1ccc2c(c1)NC(=O)c1ccccc1S2 > 80 µM
CN(CCNC(=O)c1ccc2c(c1)NC(=O)c1ccccc1S2)C1CCCCC1 > 80 µM
O=C(Nc1nnc(S(=O)(=O)N2CCCCCC2)s1)c1cccc(Cl)c1 > 80 µM
O=C(Nc1nnc(S(=O)(=O)N2CCCCCC2)s1)c1cccc(F)c1 > 80 µM
Cc1cccc(C(=O)Nc2nnc(S(=O)(=O)N3CCOCC3)s2)c1 > 80 µM
CCN1CCCC1CNC(=O)c1ccc2c(c1)N(Cc1ccccc1F)C(=O)c1ccccc1S2 (stereo not drawn) > 80 µM
CN(C)CCNC(=O)c1ccc2c(c1)NC(=O)/C(=C\c1cccc(Cl)c1)S2 > 80 µM
CC1Cc2ccccc2N1S(=O)(=O)c1nnc(NC(=O)c2cccc(F)c2)s1 (stereo not drawn) > 80 µM
O=C(Nc1nnc(S(=O)(=O)N2CCCCC2)s1)c1cccc(F)c1 > 80 µM
CCN1CCCC1CNC(=O)c1ccc2c(c1)N(Cc1ccc(C(F)(F)F)cc1)C(=O)c1ccccc1S2 (stereo not drawn) > 80 µM
Cc1cccc(C(=O)Nc2nnc(S(=O)(=O)N3CCCc4ccccc43)s2)c1 > 80 µM
Cc1ccccc1C(=O)Nc1nnc(S(=O)(=O)N2CCCc3ccccc32)s1 > 80 µM
CCN1CCCC1CNC(=O)c1ccc2c(c1)NC(=O)/C(=C\c1ccccc1Cl)S2 (stereo not drawn) > 80 µM
COc1ccc(C(=O)Nc2nnc(S(=O)(=O)N3CCCCCC3)s2)cc1 > 80 µM
COc1cccc(/C=C2/Sc3ccc(C(=O)NCCN4CCCCCC4)cc3NC2=O)c1 > 80 µM
